According to patent US11547681B2, “N-acylethanolamide derivatives and uses thereof” (ELIEM THERAPEUTICS, INC., priority 2016, dated 2023):
Blank lines part the entries; values can stand above or below the molecule they belong to.

Experiment: in vitro
Settings: for Measured concentration of analyte PEA, 0 min / Measured concentration of analyte PEA, 10 min / Measured concentration of analyte PEA, 20 min / Measured concentration of analyte PEA, 30 min / Measured concentration of analyte PEA, 60 min / % Remaining of Initial, 0 min / % Remaining of Initial, 10 min / % Remaining of Initial, 20 min / % Remaining of Initial, 30 min / % Remaining of Initial, 60 min / Concentration, analyte PEA / % Remaining of Initial (n = 1) / Measured concentration of PEA (analyte) / % Remaining of Initial: 1 μM; for % Remaining of Initial, 0 min / % Remaining of Initial, 10 min / % Remaining of Initial, 20 min / % Remaining of Initial, 30 min / % Remaining of Initial, 60 min / microsomal CLint at 1 μM / half-life at 1 μM / % Remaining of Initial (n = 1) / % Remaining of Initial: microsomes
Procedure: The reaction mixture, minus cofactors, was prepared as described below. The test article was added into the reaction mixture at a final concentration of 1 μM. […] An aliquot of the reaction mixture (without cofactor) was equilibrated in a shaking water bath at 37° C. for 3 minutes. The reaction was initiated by the addition of cofactor, and the mixture was incubated in a shaking water bath at 37° C. Aliquots (100 μL) were withdrawn at 0, 10, 20, 30, and 60 minutes. All samples were immediately combined with 400 μL of ice-cold 50/50 acetonitrile/H2O containing 0.1% formic acid and internal standard to terminate the reaction. The samples were then mixed and centrifuged to precipitate proteins. Calibration standards were prepared in matched matrix. All samples and standards were assayed by LC-MS/MS using electrospray ionization for both the dosed prodrug I-9 and the expected drug (PEA). Analytical conditions are outlined in Appendix 4-1. The test article concentration at each time point was compared to the test article concentration at time 0 to determine the percent remaining at each time point. Half-lives were calculated using GraphPad software, fitting to a single-phase exponential decay equation.
Reaction mixture, minus cofactors, was prepared as described below. Test article was added into the reaction mixture at a final concentration of 1 μM. […] An aliquot of the reaction mixture (without cofactor) was equilibrated in a shaking water bath at 37° C. for 3 minutes. The reaction was initiated by the addition of cofactor, and the mixture was incubated in a shaking water bath at 37° C. Aliquots (100 μL) were withdrawn at 0, 10, 20, 30, and 60 minutes. Test article samples were immediately combined with 300 μL of ice-cold acetonitrile containing 1% formic acid. Control samples were immediately combined with 400 μL of ice-cold 50/50 acetonitrile (ACN)/dH2O containing 0.1% formic acid and internal standard to terminate the reaction. Samples were then mixed and centrifuged to precipitate proteins. Calibration standards were prepared in matched matrix. Samples and standards were assayed by LC-MS/MS using electrospray ionization for both dosed prodrug and expected drug (PEA). Analytical conditions are outlined in Appendix 8-1. Test article concentration at each time point was compared to test article concentration at time 0 to determine the percent remaining at each time point. Half-lives were calculated using GraphPad software, fitting to a single-phase exponential decay equation.
Reaction mixture, minus cofactors, was prepared as described below. Test article was added into the reaction mixture at a final concentration of 1 μM. […] An aliquot of the reaction mixture (without cofactor) was equilibrated in a shaking water bath at 37° C. for 5 minutes. Reaction was initiated by the addition of cofactor, and the mixture was incubated in a shaking water bath at 37° C. Aliquots (100 μL) were withdrawn at 0, 10, 20, 30, and 60 minutes. Test article samples were immediately combined with 300 μL of ice-cold acetonitrile containing 1% formic acid. Control samples were immediately combined with 400 μL of ice-cold 50/50 acetonitrile (ACN)/dH2O containing 0.1% formic acid and internal standard to terminate the reaction. Samples were then mixed and centrifuged to precipitate proteins. Calibration standards were prepared in matched matrix. Samples and standards were assayed by LC-MS/MS using electrospray ionization for both the dosed prodrug and the expected drug (PEA). Analytical conditions are outlined in Appendix 10-1. Test article concentration at each time point was compared to the test article concentration at time 0 to determine the percent remaining at each time point. Half-lives were calculated using GraphPad software, fitting to a single-phase exponential decay equation.
Reaction mixture, minus cofactors, was prepared as described below. Test article was added into the reaction mixture at a final concentration of 1 μM.

[1] = male, Sprague-Dawley, rat, 0 min
[2] = male, Sprague-Dawley, rat, 10 min
[3] = male, Sprague-Dawley, rat, 20 min
[4] = male, Sprague-Dawley, rat, 30 min
[5] = male, Sprague-Dawley, rat, 60 min
[6] = male, Sprague-Dawley, rat, 0.5 h
[7] = both, human, calculated value in parentheses
[8] = male, Sprague-Dawley, rat, calculated value in parentheses

Measured concentration of analyte PEA, 0 min (both, human, 0 min): 0.046 µM
Measured concentration of analyte PEA, 10 min (both, human, 10 min): 0.29 µM
Measured concentration of analyte PEA, 20 min (both, human, 20 min): 0.20 µM
Measured concentration of analyte PEA, 30 min (both, human, 30 min): 0.16 µM
Measured concentration of analyte PEA, 60 min (both, human, 60 min): 0.057 µM
% Remaining of Initial, 0 min (both, human, 0 h): 100%
% Remaining of Initial, 10 min (both, human, 10 min): 3.1%
% Remaining of Initial, 20 min (both, human, 20 min): <1.0%
% Remaining of Initial, 30 min (both, human, 0.5 h): <1.0%
% Remaining of Initial, 60 min (both, human, 1 h): <1.0%
microsomal CLint at 1 μM (both, human): 696 µL/min/mg
half-life at 1 μM (both, human): 2 min
Measured concentration of analyte PEA, 0 min [1]: 0.023 µM
Measured concentration of analyte PEA, 10 min [2]: 0.048 µM
Measured concentration of analyte PEA, 20 min [3]: 0.031 µM
Measured concentration of analyte PEA, 30 min [4]: 0.0086 µM
Measured concentration of analyte PEA, 60 min [5]: 0 µM
% Remaining of Initial, 0 min (male, Sprague-Dawley, rat, 0 h): 100%
% Remaining of Initial, 10 min [2]: 3.3%
% Remaining of Initial, 20 min [3]: <1.0%
% Remaining of Initial, 30 min [6]: <1.0%
% Remaining of Initial, 60 min (male, Sprague-Dawley, rat, 1 h): <1.0%
microsomal CLint at 1 μM (male, Sprague-Dawley, rat): 681 µL/min/mg
half-life at 1 μM (male, Sprague-Dawley, rat): 2 min
SMILES: CCCCCCCCCCCCCCCC(=O)NCCOC(=O)CCC(=O)OCC(COC(=O)CCC)OC(=O)CCC (stereo not shown) [Compound I-11]

Concentration, analyte PEA (both, human, 0 min): 0 nM
Concentration, analyte PEA (both, human, 10 min): 0 nM
Concentration, analyte PEA (both, human, 20 min): 0 nM
Concentration, analyte PEA (both, human, 30 min): 0 nM
Concentration, analyte PEA (both, human, 60 min): 0 nM
% Remaining of Initial (n = 1) (both, human, 0 h): 100%
% Remaining of Initial (n = 1) (both, human, 10 min): 79%
% Remaining of Initial (n = 1) (both, human, 20 min): 73%
% Remaining of Initial (n = 1) (both, human, 0.5 h): 60%
% Remaining of Initial (n = 1) (both, human, 1 h): 42%
microsomal CLint at 1 μM (both, human): 29.6 µL/min/mg
half-life at 1 μM (both, human): 47 min
Concentration, analyte PEA [1]: 0 nM
Concentration, analyte PEA [2]: 0 nM
Concentration, analyte PEA [3]: 13 nM
Concentration, analyte PEA [4]: 13 nM
Concentration, analyte PEA [5]: 0 nM
% Remaining of Initial (n = 1) (male, Sprague-Dawley, rat, 0 h): 100%
% Remaining of Initial (n = 1) [2]: 91%
% Remaining of Initial (n = 1) [3]: 72%
% Remaining of Initial (n = 1) [6]: 60%
% Remaining of Initial (n = 1) (male, Sprague-Dawley, rat, 1 h): 38%
microsomal CLint at 1 μM (male, Sprague-Dawley, rat): 33.6 µL/min/mg
half-life at 1 μM (male, Sprague-Dawley, rat): 41 min
SMILES: CCCCC/C=C\C/C=C\CCCCCCCC(=O)OCC(COC(=O)CCC(=O)OCCNC(=O)CCCCCCCCCCCCCCC)OC(=O)CCCCCCC/C=C\C/C=C\CCCCC (stereo not shown) [Compound I-13]

Measured concentration of PEA (analyte) (both, human, 0 min): 0 µM
Measured concentration of PEA (analyte) (both, human, 10 min): 0.22 µM
Measured concentration of PEA (analyte) (both, human, 20 min): 0.15 µM
Measured concentration of PEA (analyte) (both, human, 30 min): 0.14 µM
Measured concentration of PEA (analyte) (both, human, 60 min): 0.069 µM
% Remaining of Initial (both, human, 0 h): 100%
% Remaining of Initial (both, human, 10 min): 8.0%
% Remaining of Initial (both, human, 20 min): 3.5%
% Remaining of Initial (both, human, 0.5 h): 1.9%
% Remaining of Initial (both, human, 1 h): <1.0%
microsomal CLint at 1 μM (both, human): > 139 µL/min/mg
microsomal CLint at 1 μM [7]: 493 µL/min/mg
half-life at 1 μM (both, human): < 10 min
half-life at 1 μM [7]: 2.8 min
Measured concentration of PEA (analyte) [1]: 0.025 µM
Measured concentration of PEA (analyte) [2]: 0.033 µM
Measured concentration of PEA (analyte) [3]: 0.015 µM
Measured concentration of PEA (analyte) [4]: 0 µM
Measured concentration of PEA (analyte) [5]: 0 µM
% Remaining of Initial (male, Sprague-Dawley, rat, 0 h): 100%
% Remaining of Initial [2]: 9.7%
% Remaining of Initial [3]: 4.2%
% Remaining of Initial [6]: 3.1%
% Remaining of Initial (male, Sprague-Dawley, rat, 1 h): <1.0%
microsomal CLint at 1 μM (male, Sprague-Dawley, rat): > 139 µL/min/mg
microsomal CLint at 1 μM [8]: 452 µL/min/mg
half-life at 1 μM (male, Sprague-Dawley, rat): < 10 min
half-life at 1 μM [8]: 3.1 min
SMILES: CCCCCCCCCCCCCCCC(=O)NCCOC(=O)CCC(=O)OC(COC(=O)CCC)COC(=O)CCC [Compound I-16]
